A word on the IC50: it is the concentration that gives 50% inhibition.

For this test, the target named is benzodiazepin recognition sites in a membrane preparation from rat brain. In words: 3H-Flunitrazepam binding (displacement from benzodiazepine recognition sites; anxiolytic activity). Set-up: species or system rat (male Wistar). To be noted: rat cerebral cortex membranes; 2 nM 3H-flunitrazepam; pH 6.9; 20 minutes at 0-4 °C; log-probit analysis.

`CCn1ncc2c3noc(-c4cccc(Cl)c4)c3cnc21` [3-(3-Chlorophenyl)-6-ethyl-6H-isoxazolo[3,4-d]pyrazolo[3,4-b]pyridine]: the IC50 was found to be 4.4 µM. That is a single-digit micromolar value.

Molecule `CCn1ncc2c3noc(-c4ccc(Cl)cc4)c3cnc21` [3-(4-Chlorophenyl)-6-ethyl-6H-isoxazolo[3,4-d]pyrazolo[3,4-b]pyridine] gave an IC50 of 0.4 µM.

In turn, `CCn1ncc2c3noc(-c4ccccc4OC)c3cnc21` [6-Ethyl-3-(2-methoxyphenyl)-6H-isoxazolo[3,4-d]pyrazolo[3,4-b]pyridine] registered an IC50 of 2 µM. Compared with the last molecule, the IC50 is about 5-fold higher. With `CCn1ncc2c3noc(-c4cccc(F)c4)c3cnc21` [6-Ethyl-3-(3-fluorophenyl)-6H-isoxazolo[3,4-d]pyrazolo[3,4-b]pyridine], the IC50 turned out to be 2.3 µM. Molecule `CCn1ncc2c3noc(-c4ccc(F)cc4)c3cnc21` [6-Ethyl-3-(4-fluorophenyl)-6H-isoxazolo[3,4-d]pyrazolo[3,4-b]pyridine] showed a 50% inhibitory concentration (IC50) of 0.53 µM. Molecule `CCn1ncc2c3noc(-c4ccc(OC)cc4)c3cnc21` [6-Ethyl-3-(4-methoxyphenyl)-6H-isoxazolo[3,4-d]pyrazolo[3,4-b]pyridine] showed a half-maximal inhibitory concentration (IC50) of 1.2 µM. This IC50 lies about 2.3-fold higher than the previous one. For `CCn1ncc2c3noc(-c4ccc(C)cc4)c3cnc21` [6-Ethyl-3-(4-tolyl)-6H-isoxazolo[3,4-d]pyrazolo[3,4-b]pyridine], the 50% inhibitory concentration (IC50) was determined as 0.99 µM. The IC50 values of the last two molecules are within 1.5-fold of each other. Consider `CCn1ncc2c3noc(-c4ccccc4)c3cnc21` [6-Ethyl-3-phenyl-6H-isoxazolo[3,4-d]pyrazolo[3,4-b]pyridine], for which the IC50 is 0.47 µM. In turn, `CNC1=Nc2ccc(Cl)cc2C(c2ccccc2)=[N+]([O-])C1` [Chlordiazepoxide, reference compound] yielded an IC50 of 0.34 µM.

For the origin of these results see patent publication US4624955A, “6H-isoxazolo[3,4-d]pyrazolo[3,4-b]pyridines, method for their preparation and use as anxiolytic agents” (Hoechst-Roussel Pharmaceuticals, priority 1985, dated 1986).
